In patent publication US11807644B2 (PMV Pharmaceuticals, Inc., priority 2020, dated 2023):

target: T1, recombinant His-tag Y220C p53 DBD protein (Homo sapiens, UniProt P04637, Y220C); experiment: In vitro DNA binding activity assay (TR-FRET): binding of His-tag Y220C p53 DBD to biotin-labeled consensus DNA; format: biochemical; settings: SC150 = concentration to increase DNA binding by […], His-tag Y220C p53 DBD, biotin-labeled consensus DNA
T1 construct: recombinant His-tag Y220C p53 DBD protein (amino acids #˜94-312)
Protocol: DNA binding activity of the compounds was measured using a TR-FRET (Time-Resolved Fluorescence Resonance Energy Transfer) assay in which recombinant His-tag Y220C p53 DBD protein binds to biotin-labeled consensus DNA. Binding of recombinant His-tag Y220C p53 DBD protein and biotin-labeled consensus DNA was registered by the FRET (fluorescence resonance energy transfer) between allophycocyanin (APC) conjugated anti-His tag antibody and Europium-(Eu) conjugated Streptavidin.
The compounds of TABLES 1-9 (2 mM stock in dimethylsulfoxide) were diluted 3-fold in series in dimethylsulfoxide. 1.2 μL of a compound solution was added to each well of 384-well polypropylene black plates (NUNC). Thirty μL per well of 181 nM recombinant His-tag Y220C p53 DBD protein (amino acids #˜94-312; SEQ ID NO: 1) and 6.1 nM of APC conjugated anti-His tag antibody (Columbia Biosciences) in ice-cold Assay Buffer 1 (50 mM Tris-HCl, pH 7.4, 75 mM KCl, 0.75 mM DTT and 0.2 mg/ml, BSA) were added. As a background control. 30 μL of Assay Buffer 1 containing 6.1 nM of APC anti-His antibody (No Y220C protein) was also added into a second set of serially diluted compound plates. The samples were spun by centrifuge at 1,200 rpm (Eppendorf 5810R Plate centrifuge) for 1 minute and incubated at room temperature (20° C.) for 15 min. The samples were then further incubated at either 27° C. or 29° C. for 60 min. […] The samples were spun by centrifuge at 1,200 rpm for 1 min and incubated at room temperature (20° C.) for 20 min. Assay signals were monitored by reading excitation at 340 nm, and emission fluorescence at 615 nm and 665 nm on an Envision® reader. Normalized TR-FRET (time-resolved fluorescence resonance energy transfer) assay signal (Rn) was calculated by the formula: Rn=[(A−Ba−C×(D−Bd))/(D−Bd)]×(D−Bd) Wherein: • A is the fluorescence intensity of the sample at 665 nm; • D is the fluorescence intensity of the sample at 615 nm; • Ba and Bd are plate backgrounds at 665 nm and 615 nm, respectively; and • Dc is the fluorescence intensity of 0.67 nM Eu-SA in the assay buffer at 615 nm.
The cross-talk factor (C) was determined by the following formula: C=(Ac−Ba)/(Dc−Bd) wherein Ac is the fluorescence intensity of 0.67 nM Europium (Eu) conjugated Streptavidin in the assay buffer at 665 nm.

Row | Structure (SMILES) | Y220C SC150 (μM)
1 | CN1CC[C@@H](Nc2cccc3c2cc(-c2noc(C(=O)NCC4CCOCC4)n2)n3CC(F)(F)F)[C@@H](F)C1 [Compound 558B, 3-(4-{[(3S,4R)-3-fluoro-1-methylpiperidin-4-yl]amino}-1-(2,2,2-trifluoroethyl)-1H-indol-2-yl)-N-[(oxan-4-yl)methyl]-1,2,4-oxadiazole-5-carboxamide] | * (* = 0 μM ≤ SC150 < 0.1 μM)
2 | CN1CC[C@@H](Nc2cccc3c2cc(-c2noc(CNc4ccnn4C(C)(C)C)n2)n3CC(F)(F)F)[C@@H](F)C1 [Compound 396B, 2-(5-{[(1-tert-butyl-1H-pyrazol-5-yl)amino]methyl}-1,2,4-oxadiazol-3-yl)-N-[(3S,4R)-3-fluoro-1-methylpiperidin-4-yl]-1-(2,2,2-trifluoroethyl)-1H-indol-4-amine] | ** (** = 0.1 μM ≤ SC150 < 0.5 μM)
3 | O=C(NCc1nc(-c2cc3c(NCc4ccccc4)cccc3n2CC(F)(F)F)no1)C1CC1 [Compound 160B, N-({3-[4-(benzylamino)-1-(2,2,2-trifluoroethyl)-1H-indol-2-yl]-1,2,4-oxadiazol-5-yl}methyl)cyclopropanecarboxamide] | ** (** = 0.1 μM ≤ SC150 < 0.5 μM)
4 | CN1CC[C@@H](Nc2cccc3c2cc(-c2ncc(CNC(=O)C4CC4)s2)n3CC(F)(F)F)[C@@H](F)C1 (racemic) [Compound 95B, (+/−)-N-{[2-(4-{[(3R,4S)-3-fluoro-1-methylpiperidin-4-yl]amino}-1-(2,2,2-trifluoroethyl)-1H-indol-2-yl)-1,3-thiazol-5-yl]methyl}cyclopropanecarboxamide] | * (* = 0 μM ≤ SC150 < 0.1 μM)
5 | CN1CCC(Nc2cccc3c2cc(-c2nnc(CNC(=O)c4cccc(F)c4)s2)n3CC(F)(F)F)CC1 [Compound 51B, 3-fluoro-N-[(5-{4-[(1-methylpiperidin-4-yl)amino]-1-(2,2,2-trifluoroethyl)-1H-indol-2-yl}-1,3,4-thiadiazol-2-yl)methyl]benzamide] | * (* = 0 μM ≤ SC150 < 0.1 μM)
6 | CN1CCC(Nc2cccc3c2cc(-c2nnc(CNC(=O)c4ccccc4F)s2)n3CC(F)(F)F)CC1 [Compound 50B, 2-fluoro-N-[(5-{4-[(1-methylpiperidin-4-yl)amino]-1-(2,2,2-trifluoroethyl)-1H-indol-2-yl}-1,3,4-thiadiazol-2-yl)methyl]benzamide] | ** (** = 0.1 μM ≤ SC150 < 0.5 μM)
7 | CN1CC[C@@H](Nc2cccc3c2cc(-c2noc(CNC(=O)c4ccn(C5CCC(N(C)C)C5)c4)n2)n3CC(F)(F)F)[C@@H](F)C1 (stereo in doubt) [Compound 361B, 1-[(1R,3R)-3-(dimethylamino)cyclopentyl]-N-{[3-(4-{[(3S,4R)-3-fluoro-1-methylpiperidin-4-yl]amino}-1-(2,2,2-trifluoroethyl)-1H-indol-2-yl)-1,2,4-oxadiazol-5-yl]methyl}-1H-pyrrole-3-carboxamide] | * (* = 0 μM ≤ SC150 < 0.1 μM)
8 | COC(C)(C)c1ccc(C(=O)NCc2nc(-c3cc4c(N[C@H]5CCNC[C@H]5F)cccc4n3CC(F)(F)F)no2)s1 [Compound 479B, N-{[3-(4-{[(3R,4S)-3-fluoropiperidin-4-yl]amino}-1-(2,2,2-trifluoroethyl)-1H-indol-2-yl)-1,2,4-oxadiazol-5-yl]methyl}-5-(2-methoxypropan-2-yl)thiophene-2-carboxamide] | * (* = 0 μM ≤ SC150 < 0.1 μM)
9 | CN1CC[C@@H](Nc2cccc3c2cc(-c2noc(CNC(=O)c4cnn(C5(C)CC5)c4)n2)n3CC(F)(F)F)[C@@H](F)C1 [Compound 448B, N-{[3-(4-{[(3S,4R)-3-fluoro-1-methylpiperidin-4-yl]amino}-1-(2,2,2-trifluoroethyl)-1H-indol-2-yl)-1,2,4-oxadiazol-5-yl]methyl}-1-(1-methylcyclopropyl)-1H-pyrazole-4-carboxamide] | * (* = 0 μM ≤ SC150 < 0.1 μM)
10 | CN1CC[C@@H](Nc2cccc3c2cc(-c2noc(CNC(=O)C4CC4)n2)n3CC(F)(F)F)[C@@H](F)C1 (racemic) [Compound 171B, (+/−)-N-{[3-(4-{[(3R,4S)-3-fluoro-1-methylpiperidin-4-yl]amino}-1-(2,2,2-trifluoroethyl)-1H-indol-2-yl)-1,2,4-oxadiazol-5-yl]methyl}cyclopropanecarboxamide] | * (* = 0 μM ≤ SC150 < 0.1 μM)
11 | CN1CC[C@@H](Nc2cccc3c2cc(-c2noc(CNC(=O)c4ccc(C(C)(C)C)n4C)n2)n3CC(F)(F)F)[C@@H](F)C1 [Compound 542B, 5-tert-butyl-N-{[3-(4-{[(3S,4R)-3-fluoro-1-methylpiperidin-4-yl]amino}-1-(2,2,2-trifluoroethyl)-1H-indol-2-yl)-1,2,4-oxadiazol-5-yl]methyl}-1-methyl-1H-pyrrole-2-carboxamide] | * (* = 0 μM ≤ SC150 < 0.1 μM)
12 | CN1CC[C@@H](Nc2cccc3c2cc(-c2noc(CNC(=O)[C@@H]4C[C@H]4c4ccccn4)n2)n3CC(F)(F)F)[C@@H](F)C1 [Compound 226B, (1R,2R)-N-{[3-(4-{[(3S,4R)-3-fluoro-1-methylpiperidin-4-yl]amino}-1-(2,2,2-trifluoroethyl)-1H-indol-2-yl)-1,2,4-oxadiazol-5-yl]methyl}-2-(pyridin-2-yl)cyclopropane-1-carboxamide] | * (* = 0 μM ≤ SC150 < 0.1 μM)
13 | CC(=O)N1CCC(Nc2cccc3c2cc(-c2noc(CNC(=O)C4CC4)n2)n3CC(F)(F)F)CC1 [Compound 161B, N-[(3-{4-[(1-acetylpiperidin-4-yl)amino]-1-(2,2,2-trifluoroethyl)-1H-indol-2-yl}-1,2,4-oxadiazol-5-yl)methyl]cyclopropanecarboxamide] | * (* = 0 μM ≤ SC150 < 0.1 μM)
14 | CN1CC[C@@H](Nc2cccc3c2cc(-c2noc(CNC(=O)c4ccn(C5CCOC5)c4)n2)n3CC(F)(F)F)[C@@H](F)C1 (stereo partly drawn) [Compound 323B, N-{[3-(4-{[(3S,4R)-3-fluoro-1-methylpiperidin-4-yl]amino}-1-(2,2,2-trifluoroethyl)-1H-indol-2-yl)-1,2,4-oxadiazol-5-yl]methyl}-1-(oxolan-3-yl)-1H-pyrrole-3-carboxamide] | * (* = 0 μM ≤ SC150 < 0.1 μM)
15 | CN1CCC(Nc2cccc3c2cc(-c2nnc(CNC(=O)C4(C)CC4)s2)n3CC(F)(F)F)CC1 [Compound 71B, 1-methyl-N-[(5-{4-[(1-methylpiperidin-4-yl)amino]-1-(2,2,2-trifluoroethyl)-1H-indol-2-yl}-1,3,4-thiadiazol-2-yl)methyl]cyclopropane-1-carboxamide] | ** (** = 0.1 μM ≤ SC150 < 0.5 μM)
16 | CN1CCC(Nc2cccc3c2cc(-c2noc(CNC(=O)c4cnn(C)c4)n2)n3CC(F)(F)F)CC1 [Compound 154B, 1-methyl-N-[(3-{4-[(1-methylpiperidin-4-yl)amino]-1-(2,2,2-trifluoroethyl)-1H-indol-2-yl}-1,2,4-oxadiazol-5-yl)methyl]-1H-pyrazole-4-carboxamide] | * (* = 0 μM ≤ SC150 < 0.1 μM)
17 | CC(C)NC[C@@H]1C[C@H]1C(=O)NCc1nc(-c2cc3c(N[C@@H]4CCN(C)C[C@@H]4F)cccc3n2CC(F)(F)F)no1 [Compound 246B, (1R,2R)-N-{[3-(4-{[(3S,4R)-3-fluoro-1-methylpiperidin-4-yl]amino}-1-(2,2,2-trifluoroethyl)-1H-indol-2-yl)-1,2,4-oxadiazol-5-yl]methyl}-2-{[(propan-2-yl)amino]methyl}cyclopropane-1-carboxamide] | * (* = 0 μM ≤ SC150 < 0.1 μM)

same assay, conditions: concentration to increase DNA binding by […], incubated at either 27° C. or 29° C. for 60 min

Row | Structure (SMILES) | SC150 (μM)
18 | COCC(O)CN1CCC(Nc2cccc3c2cc(-c2ccc4c(C)[nH]nc4c2)n3CC(F)(F)F)CC1 (stereo not shown) [Compound 47A, 1-methoxy-3-(4-{[2-(3-methyl-2H-indazol-6-yl)-1-(2,2,2-trifluoroethyl)-1H-indol-4-yl]amino}piperidin-1-yl)propan-2-ol] | +++ (+++ = 5 μM ≤ SC150 < 10 μM)
19 | NC(=O)c1ccc(-c2cc3c(NC4CCS(=O)(=O)CC4)cccc3n2CC(F)(F)F)cc1 [Compound 1A, 4-{4-[(1,1-dioxo-1λ^6-thian-4-yl)amino]-1-(2,2,2-trifluoroethyl)-1H-indol-2-yl}benzamide] | ++++ (++++ = 10 μM ≤ SC150 < 35 μM)
